Results reported in ChEMBL document CHEMBL4811262, “Parallel discovery of selective and dual inhibitors of tryptophan dioxygenases IDO1 and TDO2 with a newly-modified enzymatic assay” (Bioorg Med Chem, 2021).

What was measured:
[1] = target: T1, Indoleamine 2,3-dioxygenase 1 (Homo sapiens, UniProt P14902); experiment: Inhibition of recombinant human IDO1 expressed in Escherichia coli EC538 assessed as reduction in N-formylkynurenine formation using L-tryptophan as substrate incubated for 30 mins by methylene blue reagent based concurrent assay
T1 sequence (P14902 whole entry): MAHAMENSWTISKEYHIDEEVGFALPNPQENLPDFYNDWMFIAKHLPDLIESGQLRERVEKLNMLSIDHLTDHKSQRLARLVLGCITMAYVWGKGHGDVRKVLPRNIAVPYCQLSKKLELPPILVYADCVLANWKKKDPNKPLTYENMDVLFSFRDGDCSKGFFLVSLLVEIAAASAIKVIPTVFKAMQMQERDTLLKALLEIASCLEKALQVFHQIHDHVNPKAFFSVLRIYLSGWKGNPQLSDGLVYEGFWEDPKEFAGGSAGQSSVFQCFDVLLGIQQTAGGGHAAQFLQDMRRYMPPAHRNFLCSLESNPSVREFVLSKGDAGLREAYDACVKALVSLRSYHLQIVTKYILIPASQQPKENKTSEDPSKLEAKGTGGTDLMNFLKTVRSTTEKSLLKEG

[2] = target: T2, Tryptophan 2,3-dioxygenase (Homo sapiens, UniProt P48775); experiment: Inhibition of recombinant human TDO2 expressed in Escherichia coli BL21 (DE3) assessed as reduction in N-formylkynurenine formation using L-tryptophan as substrate incubated for 30 mins by methylene blue reagent based concurrent assay
T2 sequence (P48775 whole entry): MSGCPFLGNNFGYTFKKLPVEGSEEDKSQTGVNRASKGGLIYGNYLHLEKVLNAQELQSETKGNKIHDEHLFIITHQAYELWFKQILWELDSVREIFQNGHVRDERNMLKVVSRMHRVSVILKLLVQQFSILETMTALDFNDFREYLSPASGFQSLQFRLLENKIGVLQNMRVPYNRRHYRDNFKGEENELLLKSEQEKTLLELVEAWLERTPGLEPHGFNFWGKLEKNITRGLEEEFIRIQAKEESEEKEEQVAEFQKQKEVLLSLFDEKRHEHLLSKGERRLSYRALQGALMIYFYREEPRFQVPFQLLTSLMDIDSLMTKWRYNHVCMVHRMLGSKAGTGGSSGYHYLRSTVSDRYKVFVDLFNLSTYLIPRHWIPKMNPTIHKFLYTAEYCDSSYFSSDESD

[3] = target: T1, Indoleamine 2,3-dioxygenase 1; experiment: Inhibition of recombinant human IDO1 expressed in Escherichia coli EC538 assessed as reduction in N-formylkynurenine formation using L-tryptophan as substrate incubated for 30 mins by methylene blue reagent based assay
[4] = target: Tryptophan 2,3-dioxygenase (Rattus norvegicus, UniProt P21643); experiment: Inhibition of TDO2 in rat liver homogenate assessed as reduction in N-formylkynurenine formation using L-tryptophan as substrate incubated for 1 hr; type: tissue-based
Sequence of Tryptophan 2,3-dioxygenase (Rattus norvegicus, UniProt P21643) (P21643 whole entry): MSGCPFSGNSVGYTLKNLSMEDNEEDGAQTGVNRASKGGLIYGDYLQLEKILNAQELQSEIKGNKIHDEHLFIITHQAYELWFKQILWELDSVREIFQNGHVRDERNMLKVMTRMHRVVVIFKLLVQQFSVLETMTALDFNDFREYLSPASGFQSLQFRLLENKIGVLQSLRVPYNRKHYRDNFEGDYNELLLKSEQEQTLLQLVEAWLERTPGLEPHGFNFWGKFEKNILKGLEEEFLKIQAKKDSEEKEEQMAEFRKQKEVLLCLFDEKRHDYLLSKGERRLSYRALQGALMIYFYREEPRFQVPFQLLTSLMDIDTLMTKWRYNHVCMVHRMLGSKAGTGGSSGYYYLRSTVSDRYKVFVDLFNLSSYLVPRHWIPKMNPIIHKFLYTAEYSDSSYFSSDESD

[5] = target: T2, Tryptophan 2,3-dioxygenase; experiment: Inhibition of recombinant human TDO2 expressed in Escherichia coli BL21 (DE3) assessed as reduction in N-formylkynurenine formation using L-tryptophan as substrate incubated for 30 mins by methylene blue reagent based assay

Structure (SMILES) | IC50 [1] [µM] | IC50 [2] [µM] | IC50 [3] [µM] | IC50 [4] [µM] | IC50 [5] [µM]
Oc1ccccc1-c1nc2c3ccccc3c3ccccc3c2[nH]1 | 11.8 | 12.3 |  |  | 
O=[N+]([O-])c1cc(F)c2cccnc2c1O | 14.6 | 30.2 |  |  | 
O=Cc1ccc(O)c2ncccc12 | 4.37 | > 100 |  |  | 
CC1Oc2cc3c(-c4c(O)cc(O)c5c(O)c6c(cc45)OC(C)C(C)C6=O)c(O)cc(O)c3c(O)c2C(=O)C1C (centres undefined) | 44.1 | 48.6 |  |  | 
COCCn1c2nc(=O)n(-c3ccccc3)c(=O)c-2nc2ccccc21 | 23.8 | 33.7 |  |  | 
O=[N+]([O-])/C=C/c1cc2ccccc2[nH]1 | 2.79 | > 100 |  |  | 
Cc1cc(=O)n2c3c(c4c(cc13)c(CN(C)C)cc(=O)n4C)OC2 | 27 | 17.6 |  |  | 
O=[N+]([O-])c1cc([N+](=O)[O-])c2cccnc2c1O | 11.1 | 22.7 |  |  | 
O=S(=O)(/N=C/c1c(O)ccc2ccccc12)c1cccs1 | 1.39 | 11.3 |  |  | 
Fc1ccc2c(/C=C/c3cccnc3)c[nH]c2c1 | 478 |  | 350 | 0.05 | 
O=C1c2ccccc2C2=C3C(O)=NN=C3CCN12 | 1.72 | 4.35 |  |  | 
Nc1nonc1C(=NO)Nc1ccc(F)c(Cl)c1 |  | 3.62 |  |  | 3.47
CC1=C(O)C(=O)C=C2C1=CC=C1[C@@]2(C)CC[C@@]2(C)[C@@H]3C[C@](C)(C(=O)O)CC[C@]3(C)CC[C@]12C [CELASTROL] | 8.41 | > 100 |  |  | 
NS(=O)(=O)NCCNc1nonc1C(=NO)Nc1ccc(F)c(Br)c1 [EPACADOSTAT] |  | 3.43 |  |  | 2.12
